What was measured:
Assay type in all cases: binding
403 non-mutant kinases = test: KINOMEscan panel selectivity (S-Score, number of kinases engaged); settings: 10 μM; for S-Score (35): non-mutant kinases below 35% control divided by kinases examined
Protocol: Selectivity profiling of compound 3 among a panel of kinases was performed with KINOMEscan® as set forth below. The KINOMEscan® screening platform employs an active site-directed competition binding assay to quantitatively measure interactions between a test compound, e.g., compound 3, and more than 450 kinases and disease-relevant mutant variants.
Screening of compound 3 was conducted at a concentration of 10 μM by Eurofins DiscoverX. Activity is measured as the ability of compound 3 to displace the kinase from a solid support relative to a negative control (i.e., DMSO). The output is % control.
The selectivity score (S-Score) refers to the number of non-mutant kinases that display a % control below a specific number, divided by the number of non-mutant kinases that were examined.
Selectivity profiling of compound 5 among a panel of kinases was performed with KINOMEscan® as set forth below.

[1] = biological target: ABL1(Q252H)-nonphosphorylated (Homo sapiens (Human), UniProt P00519, Q252H); test: KINOMEscan; settings: 10000 nM, read-out: Percent Control
BMX = BMX (Homo sapiens (Human), UniProt P51813); test: KINOMEscan; settings: 10000 nM, read-out: Percent Control
CAMK2G = CAMK2G (Homo sapiens (Human), UniProt Q13555); test: KINOMEscan; settings: 10000 nM, read-out: Percent Control
CAMK4 = CAMK4 (Homo sapiens (Human), UniProt Q16566); test: KINOMEscan; settings: CAMK4, 10000 nM; read-out: Percent Control
DAPK1 = DAPK1 (Homo sapiens (Human), UniProt P53355); test: KINOMEscan; settings: DAPK1, 10000 nM; read-out: Percent Control
DYRK1A = DYRK1A (Homo sapiens (Human), UniProt Q13627); test: KINOMEscan; settings: 10000 nM, read-out: Percent Control
DYRK2 = DYRK2 (Homo sapiens (Human), UniProt Q92630); test: KINOMEscan; settings: DYRK2, 10000 nM; read-out: Percent Control
Sequence of DYRK2 (Q92630 whole entry): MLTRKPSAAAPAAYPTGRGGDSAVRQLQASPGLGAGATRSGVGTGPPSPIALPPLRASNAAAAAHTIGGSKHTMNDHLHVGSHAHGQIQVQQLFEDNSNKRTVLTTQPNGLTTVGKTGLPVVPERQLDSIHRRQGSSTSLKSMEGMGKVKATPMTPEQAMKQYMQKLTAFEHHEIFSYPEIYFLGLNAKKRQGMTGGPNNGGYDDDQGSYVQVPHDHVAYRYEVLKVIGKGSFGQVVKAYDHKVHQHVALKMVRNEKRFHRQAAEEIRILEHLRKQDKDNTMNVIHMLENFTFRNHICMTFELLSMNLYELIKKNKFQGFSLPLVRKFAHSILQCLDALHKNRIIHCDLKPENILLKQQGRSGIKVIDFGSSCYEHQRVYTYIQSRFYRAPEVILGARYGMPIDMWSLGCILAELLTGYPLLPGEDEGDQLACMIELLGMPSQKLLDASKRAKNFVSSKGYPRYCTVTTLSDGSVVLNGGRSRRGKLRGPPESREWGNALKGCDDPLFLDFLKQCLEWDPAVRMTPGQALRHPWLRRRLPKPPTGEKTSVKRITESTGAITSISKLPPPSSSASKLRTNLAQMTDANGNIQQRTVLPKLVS

[2] = biological target: EGFR(L747-E749del, A750P) (Homo sapiens (Human), UniProt P00533, A750P/DEL747-749); test: KINOMEscan; settings: 10000 nM, read-out: Percent Control
EGFR(L861Q) = EGFR(L861Q) (Homo sapiens (Human), UniProt P00533, L861Q); test: KINOMEscan; settings: 10000 nM, read-out: Percent Control
ERBB4 = ERBB4 (Homo sapiens (Human), UniProt Q15303); test: KINOMEscan; settings: ERBB4, 10000 nM; read-out: Percent Control
GRK1 = GRK1 (Homo sapiens (Human), UniProt Q15835); test: KINOMEscan; settings: GRK1, 10000 nM; read-out: Percent Control
Sequence of GRK1 (Q15835 whole entry): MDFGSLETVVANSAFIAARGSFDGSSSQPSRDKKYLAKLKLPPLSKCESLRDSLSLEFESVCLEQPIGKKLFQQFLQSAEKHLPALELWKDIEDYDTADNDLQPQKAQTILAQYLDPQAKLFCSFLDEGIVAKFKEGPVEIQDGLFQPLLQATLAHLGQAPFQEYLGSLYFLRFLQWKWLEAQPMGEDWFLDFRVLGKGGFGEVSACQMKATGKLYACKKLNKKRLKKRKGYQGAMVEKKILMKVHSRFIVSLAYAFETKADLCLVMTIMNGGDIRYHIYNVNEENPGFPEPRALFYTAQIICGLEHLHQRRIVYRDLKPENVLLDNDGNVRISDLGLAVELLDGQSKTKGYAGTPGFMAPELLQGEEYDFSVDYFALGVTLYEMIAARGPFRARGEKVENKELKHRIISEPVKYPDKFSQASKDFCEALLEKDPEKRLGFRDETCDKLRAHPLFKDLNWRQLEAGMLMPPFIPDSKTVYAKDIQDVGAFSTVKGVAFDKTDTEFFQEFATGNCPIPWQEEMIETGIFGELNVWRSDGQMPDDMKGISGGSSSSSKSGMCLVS

IGF1R = IGF1R (Homo sapiens (Human), UniProt P08069); test: KINOMEscan; settings: 10000 nM, read-out: Percent Control
Sequence of IGF1R (P08069 31-1367): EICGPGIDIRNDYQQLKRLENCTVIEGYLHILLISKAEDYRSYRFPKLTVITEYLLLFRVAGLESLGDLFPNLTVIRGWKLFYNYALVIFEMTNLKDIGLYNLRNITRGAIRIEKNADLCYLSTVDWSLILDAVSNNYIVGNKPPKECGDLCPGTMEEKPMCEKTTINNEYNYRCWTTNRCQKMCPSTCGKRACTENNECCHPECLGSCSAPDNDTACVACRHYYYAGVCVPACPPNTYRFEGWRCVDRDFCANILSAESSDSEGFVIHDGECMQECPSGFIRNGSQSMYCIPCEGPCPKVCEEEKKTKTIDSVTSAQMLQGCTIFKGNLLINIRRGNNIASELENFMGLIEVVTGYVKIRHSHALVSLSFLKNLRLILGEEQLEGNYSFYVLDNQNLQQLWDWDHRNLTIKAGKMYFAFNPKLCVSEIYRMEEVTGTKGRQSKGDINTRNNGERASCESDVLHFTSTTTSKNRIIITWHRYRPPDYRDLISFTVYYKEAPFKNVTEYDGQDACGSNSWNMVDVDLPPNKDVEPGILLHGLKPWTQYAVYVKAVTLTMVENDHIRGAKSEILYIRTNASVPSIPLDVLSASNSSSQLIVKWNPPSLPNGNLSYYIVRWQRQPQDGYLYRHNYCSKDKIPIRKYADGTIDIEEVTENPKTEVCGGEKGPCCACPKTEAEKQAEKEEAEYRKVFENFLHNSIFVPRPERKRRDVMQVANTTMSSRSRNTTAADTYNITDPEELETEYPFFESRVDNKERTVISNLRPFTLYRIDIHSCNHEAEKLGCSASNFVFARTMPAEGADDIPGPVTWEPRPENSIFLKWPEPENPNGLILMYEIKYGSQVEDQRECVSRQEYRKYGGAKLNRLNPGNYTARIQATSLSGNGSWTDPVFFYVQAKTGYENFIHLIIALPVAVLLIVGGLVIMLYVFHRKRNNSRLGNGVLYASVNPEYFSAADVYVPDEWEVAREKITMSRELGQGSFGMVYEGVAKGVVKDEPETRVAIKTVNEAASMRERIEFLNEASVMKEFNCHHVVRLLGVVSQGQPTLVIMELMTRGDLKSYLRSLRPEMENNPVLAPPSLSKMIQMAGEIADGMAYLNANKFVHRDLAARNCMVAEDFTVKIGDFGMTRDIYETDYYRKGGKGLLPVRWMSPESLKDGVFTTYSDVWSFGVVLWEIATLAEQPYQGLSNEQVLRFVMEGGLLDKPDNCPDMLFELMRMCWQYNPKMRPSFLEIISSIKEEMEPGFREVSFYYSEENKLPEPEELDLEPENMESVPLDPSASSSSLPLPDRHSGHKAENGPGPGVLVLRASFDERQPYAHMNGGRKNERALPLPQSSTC

KIT(L576P) = KIT(L576P) (Homo sapiens (Human), UniProt P10721, L576P); test: KINOMEscan; settings: 10000 nM, read-out: Percent Control
LCK = LCK (Homo sapiens (Human), UniProt P06239); test: KINOMEscan; settings: 10000 nM, read-out: Percent Control
MAP3K2 = MAP3K2 (Homo sapiens (Human), UniProt Q9Y2U5); test: KINOMEscan; settings: MAP3K2, 10000 nM; read-out: Percent Control
Sequence of MAP3K2 (Q9Y2U5 whole entry): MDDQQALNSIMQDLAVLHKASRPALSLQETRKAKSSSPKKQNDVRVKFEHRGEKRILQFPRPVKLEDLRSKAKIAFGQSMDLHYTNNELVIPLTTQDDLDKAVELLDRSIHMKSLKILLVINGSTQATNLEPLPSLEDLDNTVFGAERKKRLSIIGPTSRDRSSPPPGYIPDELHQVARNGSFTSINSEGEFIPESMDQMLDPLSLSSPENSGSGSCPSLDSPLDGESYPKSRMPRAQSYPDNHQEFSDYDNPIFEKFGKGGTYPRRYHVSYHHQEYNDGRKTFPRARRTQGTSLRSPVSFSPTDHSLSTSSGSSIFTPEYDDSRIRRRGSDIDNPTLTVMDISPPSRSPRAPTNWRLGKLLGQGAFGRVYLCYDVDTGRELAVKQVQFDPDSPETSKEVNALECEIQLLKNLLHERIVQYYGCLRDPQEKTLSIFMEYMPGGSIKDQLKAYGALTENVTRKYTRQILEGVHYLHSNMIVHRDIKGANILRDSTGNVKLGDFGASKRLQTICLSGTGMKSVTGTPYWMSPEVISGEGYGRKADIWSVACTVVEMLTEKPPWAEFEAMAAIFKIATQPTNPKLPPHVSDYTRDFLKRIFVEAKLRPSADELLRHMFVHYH

MTOR = MTOR (Homo sapiens (Human), UniProt P42345); test: KINOMEscan; settings: 10000 nM, read-out: Percent Control
NDR1 = NDR1 (Homo sapiens (Human), UniProt Q15208); test: KINOMEscan; settings: NDR1, 10000 nM; read-out: Percent Control
NEK3 = NEK3 (Homo sapiens (Human), UniProt P51956); test: KINOMEscan; settings: NEK3, 10000 nM; read-out: Percent Control
NIM1 = NIM1 (Homo sapiens (Human), UniProt Q8IY84); test: KINOMEscan; settings: NIM1, 10000 nM; read-out: Percent Control
NLK = NLK (Homo sapiens (Human), UniProt Q9UBE8); test: KINOMEscan; settings: 10000 nM, read-out: Percent Control
p38-delta = p38-delta (Homo sapiens (Human), UniProt O15264); test: KINOMEscan; settings: 10000 nM, read-out: Percent Control
PAK6 = PAK6 (Homo sapiens (Human), UniProt Q9NQU5); test: KINOMEscan; settings: PAK6, 10000 nM; read-out: Percent Control
PIP5K1C = PIP5K1C (Homo sapiens (Human), UniProt O60331); test: KINOMEscan; settings: 10000 nM, read-out: Percent Control
[3] = biological target: RSK1(Kin.Dom.1-N-terminal) (Homo sapiens (Human), UniProt Q15418); test: KINOMEscan; settings: 10000 nM, read-out: Percent Control
Sequence of RSK1(Kin.Dom.1-N-terminal) (Q15418 62-321): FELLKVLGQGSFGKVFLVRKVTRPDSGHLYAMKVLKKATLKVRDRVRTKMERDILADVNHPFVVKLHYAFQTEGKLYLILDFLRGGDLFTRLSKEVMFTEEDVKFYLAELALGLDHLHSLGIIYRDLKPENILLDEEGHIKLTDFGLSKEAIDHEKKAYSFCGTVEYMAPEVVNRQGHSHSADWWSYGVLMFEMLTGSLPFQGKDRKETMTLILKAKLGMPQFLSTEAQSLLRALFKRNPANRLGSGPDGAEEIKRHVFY

SIK = SIK (Homo sapiens (Human), UniProt P57059); test: KINOMEscan; settings: 10000 nM, read-out: Percent Control
SRPK3 = SRPK3 (Homo sapiens (Human), UniProt Q9UPE1); test: KINOMEscan; settings: SRPK3, 10000 nM; read-out: Percent Control
Sequence of SRPK3 (Q9UPE1 whole entry): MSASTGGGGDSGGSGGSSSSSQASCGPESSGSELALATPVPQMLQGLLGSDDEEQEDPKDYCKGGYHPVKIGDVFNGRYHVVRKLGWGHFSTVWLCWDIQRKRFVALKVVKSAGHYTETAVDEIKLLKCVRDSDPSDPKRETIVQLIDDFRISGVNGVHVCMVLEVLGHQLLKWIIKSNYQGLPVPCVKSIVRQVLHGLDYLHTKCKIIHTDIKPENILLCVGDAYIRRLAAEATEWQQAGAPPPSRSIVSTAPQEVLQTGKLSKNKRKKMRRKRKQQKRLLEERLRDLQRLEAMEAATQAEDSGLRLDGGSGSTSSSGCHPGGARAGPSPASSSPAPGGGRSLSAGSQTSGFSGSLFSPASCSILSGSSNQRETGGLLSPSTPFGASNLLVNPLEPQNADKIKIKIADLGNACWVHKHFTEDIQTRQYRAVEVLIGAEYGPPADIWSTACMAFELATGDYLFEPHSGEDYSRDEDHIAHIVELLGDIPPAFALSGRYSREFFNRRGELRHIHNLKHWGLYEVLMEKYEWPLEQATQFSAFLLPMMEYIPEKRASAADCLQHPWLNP

STK33 = STK33 (Homo sapiens (Human), UniProt Q9BYT3); test: KINOMEscan; settings: STK33, 10000 nM; read-out: Percent Control
Sequence of STK33 (Q9BYT3 whole entry): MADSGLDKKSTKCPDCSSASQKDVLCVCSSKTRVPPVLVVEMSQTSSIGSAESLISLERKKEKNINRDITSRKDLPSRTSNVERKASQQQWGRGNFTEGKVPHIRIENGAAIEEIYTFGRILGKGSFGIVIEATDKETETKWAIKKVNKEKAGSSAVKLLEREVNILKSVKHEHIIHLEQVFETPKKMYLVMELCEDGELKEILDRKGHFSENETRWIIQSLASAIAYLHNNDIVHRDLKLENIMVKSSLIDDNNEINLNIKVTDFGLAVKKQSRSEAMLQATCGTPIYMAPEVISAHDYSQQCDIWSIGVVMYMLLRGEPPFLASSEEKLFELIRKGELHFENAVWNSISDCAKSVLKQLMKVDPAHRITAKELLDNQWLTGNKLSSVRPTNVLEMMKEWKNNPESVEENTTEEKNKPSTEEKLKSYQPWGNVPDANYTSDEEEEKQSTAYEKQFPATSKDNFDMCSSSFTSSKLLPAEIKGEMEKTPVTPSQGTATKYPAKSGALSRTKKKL

TGFBR1 = TGFBR1 (Homo sapiens (Human), UniProt P36897); test: KINOMEscan; settings: TGFBR1, 10000 nM; read-out: Percent Control
Sequence of TGFBR1 (P36897 34-503): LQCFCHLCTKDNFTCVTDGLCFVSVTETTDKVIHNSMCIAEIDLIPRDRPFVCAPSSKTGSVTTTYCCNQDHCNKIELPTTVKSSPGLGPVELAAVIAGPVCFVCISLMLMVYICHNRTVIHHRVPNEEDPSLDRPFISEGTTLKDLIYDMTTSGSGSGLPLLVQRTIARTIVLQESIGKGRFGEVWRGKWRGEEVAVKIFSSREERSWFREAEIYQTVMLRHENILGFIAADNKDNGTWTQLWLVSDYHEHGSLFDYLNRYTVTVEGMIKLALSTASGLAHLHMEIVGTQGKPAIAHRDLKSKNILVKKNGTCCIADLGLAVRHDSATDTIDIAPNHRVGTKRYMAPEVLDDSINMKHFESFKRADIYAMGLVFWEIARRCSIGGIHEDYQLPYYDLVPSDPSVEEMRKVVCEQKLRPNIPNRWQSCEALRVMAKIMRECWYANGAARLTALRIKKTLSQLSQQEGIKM

TNK2 = TNK2 (Homo sapiens (Human), UniProt Q07912); test: KINOMEscan; settings: TNK2, 10000 nM; read-out: Percent Control
TSSK3 = TSSK3 (Homo sapiens (Human), UniProt Q96PN8); test: KINOMEscan; settings: TSSK3, 10000 nM; read-out: Percent Control

For `COc1cc(N2CCC(N3CCN(C)CC3)CC2)ccc1Nc1ncc2c(n1)N(C)c1sc(C)nc1C(=O)N2` [Compound 3, 6-((2-methoxy-4-(4-(4-methylpiperazin-1-yl)piperidin-1-yl)phenyl)amino)-2,4-dimethyl-4,9-dihydro-10H-pyrimido[5,4-b]thiazolo[5,4-e][1,4]diazepin-10-one], the “S-Score (35)” value (403 non-mutant kinases) was 0.02, the “number of non-mutant kinases displaying <35% relative to control” value (403 non-mutant kinases; out of 403 non-mutant kinases) was “five” and the “number of other kinases engaged with greater than 65% inhibition” value (403 non-mutant kinases; panel of 403 kinases) was 4. For the same compound, the remaining binding at 10 µM [1] was 7.8%, the remaining binding at 10 µM (BMX) was 76% and the remaining binding at 10 µM (CAMK2G) was 79%. The remaining binding at 10 µM (CAMK4) was 98%, the remaining binding at 10 µM (DAPK1) was 72% and the remaining binding at 10 µM (DYRK1A) was 100%. It also gave a remaining binding at 10 µM (DYRK2) of 100%, a remaining binding at 10 µM [2] of 95% and a remaining binding at 10 µM (EGFR(L861Q)) of 38%. For the same compound, the remaining binding at 10 µM (ERBB4) was 57%, the remaining binding at 10 µM (GRK1) was 86% and the remaining binding at 10 µM (IGF1R) was 86%. The remaining binding at 10 µM (KIT(L576P)) was 47%, the remaining binding at 10 µM (LCK) was 45% and the remaining binding at 10 µM (MAP3K2) was 100%. For the same compound, the remaining binding at 10 µM (MTOR) was 85%, the remaining binding at 10 µM (NDR1) was 97% and the remaining binding at 10 µM (NEK3) was 88%. For the same compound, the remaining binding at 10 µM (NIM1) was 100%, the remaining binding at 10 µM (NLK) was 59% and the remaining binding at 10 µM (p38-delta) was 82%. For the same compound, the remaining binding at 10 µM (PAK6) was 97%, the remaining binding at 10 µM (PIP5K1C) was 99% and the remaining binding at 10 µM [3] was 78%. It also gave a remaining binding at 10 µM (SIK) of 69%, a remaining binding at 10 µM (SRPK3) of 75% and a remaining binding at 10 µM (STK33) of 84%. It also gave a remaining binding at 10 µM (TGFBR1) of 88%, a remaining binding at 10 µM (TNK2) of 20% and a remaining binding at 10 µM (TSSK3) of 98%.

In the case of `COc1cc(N2CCC(N3CCN(C)CC3)CC2)ccc1Nc1ncc2c(n1)N(C)c1sc(C)nc1C(=O)N2C` [Compound 5, 6-((2-methoxy-4-(4-(4-methylpiperazin-1-yl)piperidin-1-yl)phenyl)amino)-2,4,9-trimethyl-4,9-dihydro-10H-pyrimido[5,4-b]thiazolo[5,4-e][1,4]diazepin-10-one], the “S(1)” value (403 non-mutant kinases) is reported as 0.005, the “S(10)” value (403 non-mutant kinases) is reported as 0.012 and the “S-Score (35)” value (403 non-mutant kinases) is reported as 0.042. For the same compound, the remaining binding at 10 µM [1] was 93%, the remaining binding at 10 µM (BMX) was 90% and the remaining binding at 10 µM (CAMK2G) was 97%. The remaining binding at 10 µM (CAMK4) was 100%, the remaining binding at 10 µM (DAPK1) was 84% and the remaining binding at 10 µM (DYRK1A) was 87%. It also gave a remaining binding at 10 µM (DYRK2) of 100%, a remaining binding at 10 µM [2] of 97% and a remaining binding at 10 µM (EGFR(L861Q)) of 100%. It also gave a remaining binding at 10 µM (ERBB4) of 100%, a remaining binding at 10 µM (GRK1) of 81% and a remaining binding at 10 µM (IGF1R) of 40%. It also gave a remaining binding at 10 µM (KIT(L576P)) of 100%, a remaining binding at 10 µM (LCK) of 100% and a remaining binding at 10 µM (MAP3K2) of 100%. For the same compound, the remaining binding at 10 µM (MTOR) was 31%, the remaining binding at 10 µM (NDR1) was 98% and the remaining binding at 10 µM (NEK3) was 100%. For the same compound, the remaining binding at 10 µM (NIM1) was 100%, the remaining binding at 10 µM (NLK) was 93% and the remaining binding at 10 µM (p38-delta) was 100%. It also gave a remaining binding at 10 µM (PAK6) of 100%, a remaining binding at 10 µM (PIP5K1C) of 95% and a remaining binding at 10 µM [3] of 83%. For the same compound, the remaining binding at 10 µM (SIK) was 100%, the remaining binding at 10 µM (SRPK3) was 100% and the remaining binding at 10 µM (STK33) was 10%. The remaining binding at 10 µM (TGFBR1) was 100%, the remaining binding at 10 µM (TNK2) was 87% and the remaining binding at 10 µM (TSSK3) was 98%.
